Entries after “also recorded” stand apart in the source; their conditions may differ.
Test system: RBD, a South African mutant antigen of COVID-19
Design: species or system SARS-CoV-2
Conditions: in vivo

FSL-1
antigen-specific antibody titer (RBD South African mutant): higher antibody titer; also recorded: highest antibody titer

N-palmitoyl-S-[2,3-bis(palmitoyloxy)-(2RS)-propyl]-[R]-cystein-SKKKK [Pam3CSK4]
antigen-specific antibody titer (RBD South African mutant): higher antibody titer; also recorded: highest antibody titer

Reference: patent publication US20230390384A1 (priority 2020, published 2023)
